Test results from article PMC6154613, “Investigation of the Anti-Leishmania (Leishmania) infantum Activity of Some Natural Sesquiterpene Lactones” (Molecules : A Journal of Synthetic Chemistry and Natural …, 2017).

Experiments:
[1] = test system: L. (L.) infantum promastigotes; assay: Anti-promastigote activity, MTT viability assay; type: cell-based, Leishmania (Leishmania) infantum; conditions: for IC50: Leishmania infantum, 48 h incubation, MTT, value (SD)
Description: (§1) L. (L.) infantum (MHOM/BR/1972/LD) promastigotes were maintained in M-199 medium supplemented with 10% heat-inactivated fetal bovine serum (FBS) (Gibco, Thermo Fisher Scientific, São Paulo, Brazil), 0.25% hemin (Sigma-Aldrich), and 5% human urine at 24 °C. Amastigotes were obtained from the spleen of previously infected hamsters by differential centrifugation. Macrophages were collected from the peritoneal cavity of BALB/c mice by washing with RPMI-1640 medium supplemented with 10% FBS, and were maintained at 37 °C in a 5% CO2-humidified incubator. Murine fibroblasts NCTC (clone L929 ATCC) were used to evaluate the cytotoxicity of the tested compounds. NCTC cells were maintained in M-199 medium supplemented with 10% FBS and 20 μg/mL gentamicin at 37 °C in a 5% CO2-humidified incubator.
Compounds were dissolved in DMSO and diluted in M-199 medium in 96-well microplates, with the highest concentration of 150 μM. Promastigotes of L. (L.) infantum in the late growth-phase were seeded at 1 × 10^6/well and incubated with the compounds for 48 h. The viability of cells was determined using the MTT assay. An internal control group was used with 0.5% DMSO (maximal concentration). Miltefosine was used as standard drug.
(§2) Data processing and statistical analyses was done with GraphPad Prism® 5.0 (GraphPad Software, Inc. La Jolla, CA, USA). For determination of antileishmanial activity and NCTC cytotoxicity, the IC50 and CC50 values were calculated after normalization using sigmoidal dose-response curves. The evaluation of statistical significance of multiple pairs was done with a Tukey's range test, which corrects for the increased probability of a type I error during multiple comparison.

[2] = test system: L. (L.) infantum intracellular amastigotes; assay: Activity against intracellular amastigotes in peritoneal macrophages, Giemsa staining and light microscopy; type: cell-based, Leishmania (Leishmania) infantum; conditions: for IC50: Leishmania infantum, Peritoneal macrophage, intracellular amastigotes in murine peritoneal macrophages, 120 h, highest concentration 100 μM, value (SD)
Description: as §1
Murine peritoneal macrophages were collected from the peritoneal cavity of BALB/c mice, and the macrophages were seeded at 1 × 10^5/well for 24 h in a 16-well slide. Amastigotes were prepared (as described previously), seeded at a ratio 1:10 (macrophages:amastigotes) and kept at 37 °C in a 5% CO2-humidified incubator for 24 h. Test compounds were incubated to the highest concentration of 100 μM with infected macrophages for 120 h. Miltefosine was used as a standard drug. Subsequently, the cells were fixed with methanol, stained with Giemsa (Merck KGaA, Darmstadt, Germany), and observed using a light microscope. The parasite burden was determined by the number of infected macrophages out of 400 cells.
as §2

[3] = Mammalian cytotoxicity, MTT assay; type: cell-based, murine; conditions: mouse, NCTC murine fibroblasts, 48 h, MTT, value (SD); for CC50 at 48 h: NCTC clone L929 fibroblasts
Description: as §1
(§3) NCTC cells were seeded at 6 × 10^4 in 96-well microplates and incubated with the compounds for 48 h. An internal control group was used with 0.5% DMSO (maximal concentration). The quantification of viable cells was assessed by the MTT assay. The selectivity index (SI) was determined using the following equation: SI = CC50 in NCTC cells / IC50 against amastigotes.
as §2

[4] = test system: L. (L.) infantum promastigotes; assay: ROS production, H2DCFDA, flow cytometry; type: cell-based, Leishmania (Leishmania) infantum
Description: (§4) The Δψm and ROS content of promastigotes treated with compound 1 were determined using the fluorescence probes rhodamine 123 and H2DCFDA (Molecular Probes Inc., Eugene, OR, USA), respectively, and further evaluated by flow cytometry. Briefly, 2 × 10^6 promastigotes/well cultured until the late growth-phase were treated with 12 μM of 1 (corresponding to the IC99 value obtained with 1 × 10^6 parasites/well). The parasites were incubated in HANKS’ balanced salts solution (HBSS; Sigma-Aldrich, Carlsbad, CA, USA), supplemented with 10 mM D-Glucose, at 26 °C for 1 h. Afterwards the parasites were washed and stained with rhodamine 123 (0.3 μg/mL) or H2DCFDA (5 μM) for 15 min under absence of light. The washed parasites were resuspended in PBS and the fluorescence was measured in a Flow Cytometer Attune Nxt (ThermoFisher Scientific, Waltham, MA, USA) using the forward scatter (FSC, relative cell size) and the side scatter detectors (SSC, cell granulometry or internal complexity), FL1-A (detecting fluorescence emission 530 ± 15 nm), and Attune Nxt software. As control, untreated promastigotes (not stained with Rd123 or H2DCFDA) served to monitor the basal fluorescence. […] Samples were tested in duplicate. Two independent assays were performed.

[5] = test system: peritoneal macrophages of BALB/c mice; assay: Nitric oxide production in macrophages, Griess assay; type: cell-based, Mus musculus; conditions: 3 μM, 24 h, similar levels as LPS
Description: The NO production of macrophages treated with 1 was performed using the Griess assay. Briefly, 1 × 10^5/well peritoneal macrophages of BALB/c mice were seeded overnight in a 96-well plate. Fresh medium containing compound 1 at 3 µM (corresponding to the CC25 value obtained with NCTC cells) or 5 µg/mL LPS (positive control) were added and incubated for 24 h at 37 °C. Afterwards the NO content of each of the cultures’ supernatant was analysed using the Griess assay. The samples’ NO content was determined by means of a standard curve prepared with NaNO2 at concentrations from 0 to 400 μM.

L. (L.) mexicana = test system: L. (L.) mexicana; set-up: method as in PMID 18576826; conditions: cited from earlier work
[6] = test system: L. (L.) infantum promastigotes plasma membrane; assay: Plasma membrane permeability, SYTOX Green; type: cell-based, Leishmania (Leishmania) infantum; conditions: 3 and 6 μM, 60 min, compared with untreated parasites
Description: Late-growth-phase (non-stationary) promastigotes were incubated with the probe SYTOX Green (Molecular Probes Inc., Eugene, OR, USA), as previously described. […] 1 was added at 3 and 6 μM to 1 × 10^6 cells/well, at 24 °C. The fluorescence was measured every 20 min (0–80 min). At the end of the assay (80 min), 0.1% Triton X-100 was added to all wells to obtain the maximum permeabilization of parasites. Fluorescence intensity was determined using a fluorimetric microplate reader (FilterMax F5 Multi-Mode Microplate Reader-Molecular Devices, Sunnyvale, CA, USA) with excitation and emission wavelengths of 485 and 520 nm, respectively. The following internal controls were used during the evaluation: (i) the background fluorescence of the compound at the respective wavelengths; (ii) the possible interference of DMSO; (iii) untreated promastigotes; and (iv) medium without any cells. Samples were tested in duplicate.

[7] = test system: L. (L.) infantum promastigotes; assay: Mitochondrial membrane potential, rhodamine 123, flow cytometry; type: cell-based, Leishmania (Leishmania) infantum; conditions: 6 μM, 1 h, compared with untreated parasites
Description: as §4, with “Briefly, 2 × 10^6 promastigotes/well cultured until the late growth-phase were treated with 12 μM of 1 (corresponding to the IC99 value obtained with 1 × 10^6 parasites/well).” left out

[8] = test system: Murine fibroblasts NCTC (clone L929 ATCC); assay: Mammalian cytotoxicity, MTT assay; type: cell-based; conditions: NCTC cells
Description: as §1, §3, §2

[9] = test system: L. (L.) infantum promastigotes; assay: Ultrastructural analysis by transmission electron microscopy; type: cell-based, Leishmania (Leishmania) infantum; conditions: 0.5-4 h incubation; 1 μM or 120 μM
Description: Ultrastructural studies were performed with promastigotes treated with compound 1 by TEM. L. (L.) infantum promastigotes in the late growth phase were washed and incubated with 120 μM of 1 (corresponding to the IC99 value obtained with 1 × 10^6 parasites/well) at 2 × 10^7/well in 200 μL M-199 medium. Compound incubation was performed for 0.5, 1, 2, 3, and 4 h under the previously described growth conditions. After centrifugation at 2800 rpm for 10 min, the parasites were fixed with 1 mL glutaraldehyde and the sample processing was performed according to Duarte et al.. The TEM imaging was performed on a JEOL 1011 transmission electron microscope (Peabody, MA, USA).

[10] = test system: axenic amastigotes (extracellular) of L. (L.) amazonensis; set-up: method as in PMID 24913205; conditions: cited from earlier work

Structure (SMILES)	IC50 [1] [µM]	IC50 [2] [µM]	CC50 [3] [µM]	CC50 at 48 h [3] [µM]	further results
C=C1C(=O)O[C@@H]2[C@H]3C(C)=CC[C@@]34O[C@@]4(C)CC[C@@H]12 [Arglabin (3), Arglabin]	30	7.33	39.4	–	–
C=C(CO)C(=O)O[C@H]1CC(=C)[C@@H]2C[C@H](O)C(=C)[C@@H]2[C@H]2OC(=O)C(=C)[C@@H]21 [Cynaropicrin (4), Cynaropicrin]	30.6	6.88	–	33.5	–
C=C1C(=O)O[C@@H]2C[C@@]3(C)CCC[C@H](C)C3=C[C@H]12 [Alantolactone (5), Alantolactone]	9.94	–	–	11	–
CC[C@H]1/C=C/C=C/C[C@@H](C)[C@H](O)[C@@](C)(O)C(=O)[C@@H](C)[C@H](O)[C@@H](C)C(=O)[C@@H](C)[C@H](O)[C@@H](C)/C=C/C(=O)O[C@@H]2[C@H](C)[C@H](CC1)O[C@]1(CC[C@H](C)[C@H](C[C@@H](C)O)O1)[C@H]2C [oligomycin, reference compound]	–	–	–	–	ROS production (H2DCFDA) ([4]; oligomycin 20 μM, positive control): increased the ROS production over time
CCCCCCCCCCCCCCCCOP(=O)([O-])OCC[N+](C)(C)C [Miltefosine, reference compound]	16.7	–	–	–	–
C=C1C(=O)OC2CC(C)C3C=CC(=O)C3(C)C(OC(C)=O)C12 (centres unmarked) [Helenalin acetate (1), Helenalin acetate]	3.53	1.15	8.12	–	production of NO [5]: significantly increased the production of NO; alteration of the plasma membrane (L. (L.) mexicana; L. (L.) mexicana promastigotes, long-term treatment): no alteration of the plasma membrane; SYTOX Green fluorescence (plasma membrane permeability) [6]: No significant increase of SYTOX Green fluorescence; IC99 value ([1]; promastigotes, 1 × 10^6 parasites/well): 6 µM; ROS production (H2DCFDA) ([4]; compound 1, 1 h of treatment): no alteration of ROS; decrease of Rd123 fluorescence (Δψm) [7]: 60%; infection of macrophages (light microscopy) ([2]; 0.33 µM, Figure S1c): relatively high amastigote number; infection of macrophages (light microscopy) ([2]; 1 µM, Figure S1b): A large number of infected macrophages is visible; infection of macrophages (light microscopy) ([2]; 3 µM, Figure S1a): very few infected macrophages with each very few amastigotes; CC25 value [8]: 3 µM; ultrastructural alterations (TEM) [9]: intense cytoplasmatic vacuolization, formation of autophagosomes, swelling of the mitochondrion, and chromatin decondensation
C=C1C(=O)O[C@H]2C[C@@H](C)[C@@H]3C=CC(=O)[C@@]3(C)[C@H](O)[C@H]12 [Mexicanin I (2), Mexicanin I]	4.89	1.73	9.2	–	activity against L. (L.) mexicana (L. (L.) mexicana): activity against L. (L.) mexicana at low concentrations
C=C1C(=O)O[C@@H]2C[C@@H](C)[C@@H]3C=CC(=O)[C@@]3(C)[C@@H](O)[C@H]12 [helenalin, reference compound]	–	–	–	–	activity against L. (L.) mexicana (L. (L.) mexicana): activity against L. (L.) mexicana at low concentrations
C=C1C(=O)O[C@@H]2/C=C(/CO)C3=CC(=O)[C@@](C)(C[C@@H](OC(=O)/C(C)=C/C)[C@@H]12)O3 [Budlein A (7), Budlein A]	28	–	9.05	–	–
C=C1C(=O)O[C@H]2[C@H]1CC/C(C)=C/CC[C@@]1(C)O[C@@H]21 [Parthenolide (6), Parthenolide]	59.1	89.2	–	58.2	effect on mitochondrial membrane potential [10]: mitochondrial depolarization
